How the values were obtained:
Assay type in all cases: biochemical
[1] = target: T1, human BChE isolated from plasma (Homo sapiens, UniProt P06276); assay: Ellman assay; joint IC50 over all ATCh concentrations; settings: read-out: Approx. IC50
T1 construct: native, purified from human plasma, gift from F. Nachon
From the text: Ellman assay; joint IC50 over all ATCh concentrations on human BChE isolated from plasma

[2] = target: T1, human BChE isolated from plasma; assay: Ellman assay
From the text: Ellman assay on human BChE isolated from plasma

[3] = target: T2, human recombinant AChE (Homo sapiens, UniProt P22303); assay: Ellman assay
T2 construct: recombinant human AChE, gift from F. Nachon
T2 sequence (P22303 32-614): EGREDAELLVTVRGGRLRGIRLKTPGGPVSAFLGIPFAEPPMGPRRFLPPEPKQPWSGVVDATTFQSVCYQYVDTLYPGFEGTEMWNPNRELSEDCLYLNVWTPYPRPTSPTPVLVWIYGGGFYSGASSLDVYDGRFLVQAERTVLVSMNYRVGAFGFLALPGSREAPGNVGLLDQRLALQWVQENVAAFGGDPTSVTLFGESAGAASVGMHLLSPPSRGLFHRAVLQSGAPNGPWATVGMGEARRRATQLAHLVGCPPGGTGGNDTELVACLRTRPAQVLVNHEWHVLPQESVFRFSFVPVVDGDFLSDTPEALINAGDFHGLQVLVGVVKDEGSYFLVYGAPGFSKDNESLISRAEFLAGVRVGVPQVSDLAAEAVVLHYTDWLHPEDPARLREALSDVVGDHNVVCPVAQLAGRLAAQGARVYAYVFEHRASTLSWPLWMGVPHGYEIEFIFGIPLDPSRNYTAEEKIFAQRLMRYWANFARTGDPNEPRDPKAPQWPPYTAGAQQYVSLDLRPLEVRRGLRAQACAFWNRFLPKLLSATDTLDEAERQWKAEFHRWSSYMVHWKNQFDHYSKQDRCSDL
From the text: Ellman assay on human recombinant AChE

[4] = target: T2, human recombinant AChE; assay: Ellman assay; joint IC50 over all ATCh concentrations; settings: read-out: Approx. IC50
From the text: Ellman assay; joint IC50 over all ATCh concentrations on human recombinant AChE

T1 sequence (P06276 29-602): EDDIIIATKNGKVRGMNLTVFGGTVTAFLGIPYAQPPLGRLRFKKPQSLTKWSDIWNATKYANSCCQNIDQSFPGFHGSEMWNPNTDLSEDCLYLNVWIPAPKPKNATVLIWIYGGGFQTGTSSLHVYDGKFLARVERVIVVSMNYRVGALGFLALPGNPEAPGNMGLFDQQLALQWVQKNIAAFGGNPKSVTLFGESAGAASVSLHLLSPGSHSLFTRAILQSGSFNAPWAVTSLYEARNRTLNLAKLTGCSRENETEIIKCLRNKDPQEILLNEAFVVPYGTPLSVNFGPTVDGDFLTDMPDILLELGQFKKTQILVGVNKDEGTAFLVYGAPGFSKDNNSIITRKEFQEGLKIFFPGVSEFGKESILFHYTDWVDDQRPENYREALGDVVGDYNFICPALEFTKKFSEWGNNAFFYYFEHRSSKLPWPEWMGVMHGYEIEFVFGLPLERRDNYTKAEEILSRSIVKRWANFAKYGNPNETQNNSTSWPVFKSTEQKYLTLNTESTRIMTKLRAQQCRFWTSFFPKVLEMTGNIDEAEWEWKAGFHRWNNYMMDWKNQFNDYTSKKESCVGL

**Q.** For O=C(O)CNCP(=O)(O)O [glyphosate, N-(phosphonomethyl)glycine], which IC50 [1] is on record?
**A.** ~20 mM

**Q.** What about the Ki [2] of the same compound?
**A.** 19.3 ± 1.8 mM

**Q.** And the Ki [3]?
**A.** 28.4 ± 2.7 mM

**Q.** And the IC50 [4]?
**A.** ~25.1 mM

Reference: publication PMC10978157, “Environmental exposure to glyphosate does not inhibit human acetylcholinesterase and butyrylcholinesterase” (Archives of Industrial Hygiene and Toxicology, 2024)
